The results in this text go back to patent US20220409602A1, “DOPAMINE D3 RECEPTOR LIGANDS FOR TREATMENT OF DYSKINESIA” (TEXAS BIOMEDICAL RESEARCH INSTITUTE, priority 2021, published 2022).

Each structure is given as a SMILES string. “Also recorded” adds a separate entry of the source.

What all share (format): in vivo, marmoset
In data set [1] the test system is Parkinsonian marmosets with levodopa-induced dyskinesia. Briefly: levodopa-induced dyskinesia in MPTP Parkinsonian marmosets, dyskinesia rating scale. As to conditions: for expression of levodopa-induced dyskinesia: oral, with levodopa 20 mg/kg, test drug 10 mg/kg where stated. As to the method:
Briefly, MPTP (Sigma Aldrich) (dissolved in physiological saline) at a concentration of 2 mg/ml was subcutaneously injected (2 mg/kg B.wt) for 5 consecutive days. After a wash out period of 72 hours from last MPTP injection, the marmosets were returned to their home cages and monitored twice daily for rest of the study period.
(§1) For induction of dyskinesias, Levodopa (Sigma Aldrich) and carbidopa (Sigma Aldrich) at 1:1 were administered orally once daily for 5 days of a week. The drugs were mixed in either Ensure® pudding, cottage cheese, or marshmallows. […] Once the animals were acclimated to the drugs, the dose was increased to 20 mg/kg B.wt and continued for next 6 weeks.
The severity of dyskinesia in the marmosets was categorized using a validated dyskinesia rating scale for NHPs. Dyskinesia was analyzed from 5-minute videos of the monkeys recorded at every 30 minutes on Tuesday, Wednesday and Thursday of each week. The videos were recorded between 9:30 AM-4:30 PM. Each day the vehicle or drugs were administered at 11:30 AM. The severity of dyskinesias was scored for different segments of the animal's body on a scale from 0 to 3, with 0=absent, 1=mild, 2=moderate, 3=severe. The body segments scored were: 1. Right upper limb dyskinesias (0-3); 2. Left upper limb dyskinesias (0-3); 3. Right lower limb dyskinesias (0-3); 4. left lower limb dyskinesias (0-3); 5. Trunk dyskinesias (0-3); 6, Head/facial dyskinesias (0-3). The severity of the rating was based on the frequency and amplitude of the abnormal movements. The total score is deducted from the six sub-scores to yield a dyskinesia score of 0 to 3: with 0=absent, 1=mild, manifesting by transient abnormal involuntary movements with choreic form, flicking of arms and limbs, increased running and hopping in the cages. […] 3=severe, characterized by a sustained dyskinesia manifesting with chorea and athetosis with sinuous writhing movements of the limbs, and dystonia with sustained extension of hind limbs and knees. The animals are unable to reach and grasp for treats (Video 1).

The test system of data set [2] is Parkinsonian marmosets. Briefly: Parkinson's Disease Rating Scale (PDRS) in dyskinetic Parkinsonian marmosets. How it is done:
All the animals (n=3) have been previously treated with MPTP as described in detail. Briefly, MPTP (Sigma Aldrich) (dissolved in physiological saline) at a concentration of 2 mg/ml was subcutaneously injected (2 mg/kg B.wt) for 5 consecutive days. After a wash out period of 72 hours from last MPTP injection, the marmosets were returned to their home cages and monitored twice daily for rest of the study period.
as §1
The severity of symptoms in the marmosets was categorized using a validated Parkinsonian rating scale for NHP. The PDRS correlates highly with striatal dopamine concentrations detected by postmortem immunohistopathology and it is modeled on the Unified Parkinson's Disease Rating Scale (UPDRS) and the Hoehn & Yahr scale used clinically to categorize PD patients. The PDRS was performed in daylight by video recording animals for 30 minutes. The evaluation was carried out biweekly before and after MPTP injections. The videos were scored by a blinded operator using PDRS, with a maximal disability score of 57 in the following manner: 0=normal, 1=mild, 2=moderate, 3=severe; rest tremor, action tremor, tremor of the head, tremor right arm, tremor left arm, freezing, locomotion, fine motor skills right hand, fine motor skills left hand, bradykinesia right arm, bradykinesia left arm, posture, hypokinesia, balance, posture, startle response, gross motor skills right hand and gross motor skills left hand, apathy (defined as a state of indifference), vocalization, drooling or frothing, tongue/face/lips. Independently of the PDRS, rigidity was assessed by evaluating the resistance to passive joint movements and the range of motion during reaching for food. […]

Data set [3] concerns Parkinsonian marmosets. Briefly: motor activity recorded by actiwatch-mini during levodopa-induced dyskinesia. As to conditions: for motor activity / hyperactivity during peak-dose dyskinesia (actiwatch-mini): test drug 10 mg/kg with levodopa 20 mg/kg. How it is done: as §1
(§2) The diurnal and nocturnal behavior of the marmosets was monitored using the actiwatch mini (Camntech, UK) as previously described. The device is an accelerometer that measures the intensity of the test subject's omnidirectional movements in units or counts that are directly proportional to the animal's activity. The device (2 cm in diameter) was placed on a collar around the neck of the marmoset. The animals were acclimatized to the collar in short sessions of 15 min followed by gradual increments of 30 min, 1 hr, 3 hrs, 6 hrs and 12 hrs. Once acclimatized, the actiwatch mini was attached to the collar and the activity-rest data was recorded for a period of 24 hours on 3 separate days of each treatment. The actiwatches were placed on animals at 8:30 AM and the devices were preset to start recording activity data from 9:00 AM. At 11:30 AM either the vehicle or the drugs were orally administered to the animals. The following day, the actiwatch was removed after 9:00 AM and the data was transferred to a computer through an actiwatch reader using the actiwatch activity and sleep analysis-7 software (Camntech, UK). For sleep analysis, the period of sustained quiescence (marmosets sleep cycle) starting at 7:00 PM in the evening to early morning 6:30 AM (approximately 11½ hrs) was analyzed using the sleep analysis-7 software to quantify the sleep quality and wakeful periods. The duration of sleep time was corrected for individual variations in the animal's behavior to fall asleep at different time of the evening, thereby keeping the period of sleep time analyzed same for all the animals. The analyzed data was then exported to Excel® and plotted using the Graph pad prism statistical software. To determine the change in activity after the administration of drugs, actiwatch data in 10-minute bins were exported using the actiwatch activity and sleep analysis-7 software and plotted in Graph Pad Prism.

Data set [4] relates to Parkinsonian marmosets. Briefly: PD-like symptoms and object retrieval task with barrier detour. As to conditions: compared to control or SWR-3-73. As to the method: The PD-like symptoms evaluated included tremors, bradykinesia, and posture and general activity measured by an accelerometer device, the Actiwatch mini. In addition, motor and cognitive functions were measured using the object retrieval task with barrier detour.
The object retrieval task with a barrier detour is a reward based behavioral testing system that was previously described to evaluate motor and cognitive functions of NHP. Briefly, the task requires the test subject to retrieve a reward (marshmallow) fastened to a tray from the open side (bypassing the barrier) of a transparent box. […] All parameters measured were previously described in detail. […] The entire process was recorded using a video camera and the recordings were then analyzed and scored by a blinded experimenter. During each trial, the following responses were scored (1) ability of the animal to reach the front, left, or right side of the box, scored under the term “reach act”; (2) hand of choice for the reach, either left or right, scored under the term “hand used”; (3) the outcome of the reach, either success or failure, scored under result section.
Using the above parameters, additional variables were analyzed: 1) Motor problem: Reaching into the open side of the box but without retrieving the reward. […]

In data set [5] the test system is Parkinsonian marmosets. Briefly: nocturnal activity and sleep analysis by actiwatch-mini. The note with it: with levodopa 20 mg/kg. As to the method:
as §1, §2

Where [6] appears, read: PD13R 0.1 to 10 mg/kg, SWR-3-73 and amantadine 10 mg/kg.
Where [7] appears, read: first week of high dose levodopa/carbidopa 20 mg/kg.
Where [8] appears, read: levodopa 20 mg/kg combined with vehicle.
Setting [9] is: levodopa 20 mg/kg acute challenge.

With `N#Cc1cccc(N2CCN(CCCCNC(=O)c3ccc(-c4ccsc4)cc3)CC2)c1` [PD13R], the “reduction of the expression of dyskinesia in the peak-dose period” value in data set [1] (10 mg/kg with levodopa 20 mg/kg) is recorded as “approximately 85%”. Moreover, the anti-dyskinetic effects result in data set [1] (PD13R 0.1 mg/kg with levodopa 20 mg/kg) is reported as “no anti-dyskinetic effects were observed”. Also, the “time to reach peak-dose dyskinesia” value in data set [1] (PD13R 5 mg/kg with levodopa 20 mg/kg) turned out to be 1 h. Also, the “dose with optimal anti-dyskinetic outcome” value in data set [1] (dose range with levodopa 20 mg/kg) is recorded as 10 mg/kg. In addition, the “expression of levodopa-induced dyskinesia” value in data set [1] is “inhibited the expression of levodopa-induced dyskinesia; also recorded: significantly suppresses the expression of levodopa-induced dyskinesia; also recorded: eliminates the expression of levodopa-induced dyskinesia; also recorded: eliminated the levodopa-induced dyskinesia; also recorded: significantly inhibited the expression of dyskinesias”. In the data set with Parkinsonian marmosets [2] (PD13R 10 mg/kg with levodopa in dyskinetic marmosets), the “Parkinson's Disease Rating Scale (PDRS)” value is recorded as “significantly improved the PDRS”. For the same compound, the “hyperactivity during the peak-dose period (actograms)” value in the data set on Parkinsonian marmosets [3] (PD13R 0.1 to 10 mg/kg with levodopa 20 mg/kg) was “dose-dependent and significant reduction in the hyperactivity”. Moreover, in the data set with Parkinsonian marmosets [3], the “motor activity / hyperactivity during peak-dose dyskinesia (actiwatch-mini)” value is recorded as “motor activity remained within the therapeutic ON-period zone without dyskinesia; also recorded: maintained the motor activity within the ON-period without dyskinesia; also recorded: kept the motor activity within the ON-period; also recorded: inhibited the increased hyperactivity”. Moreover, the “PD-like symptoms and movement coordination” value in the data set with Parkinsonian marmosets [4] is “clear improvement in all PD-like symptoms and movement coordination”.

Consider `NC12CC3CC(CC(C3)C1)C2` [amantadine], for which, in data set [1], the “expression of levodopa-induced dyskinesia” value was “inhibited the expression of dyskinesia; also recorded: significantly inhibited the expression of dyskinesias”. For the same compound, the “motor activity / hyperactivity during peak-dose dyskinesia (actiwatch-mini)” value with Parkinsonian marmosets [3] is reported as “inhibited the increased hyperactivity”. Further, the “motor activity / hyperactivity during peak-dose dyskinesia (actiwatch-mini)” value with Parkinsonian marmosets [3] (listed as Amantadine) is “maintained the motor activity within the ON-period without dyskinesia”. In addition, in the data set on Parkinsonian marmosets [5], the “actual awake time during the assumed sleep period” value is on record as “actual awake time was significantly increased”; the “effect on sleep (overall)” value was “experienced abnormal irregular sleep and sleep disturbances”. Besides, in the data set on Parkinsonian marmosets [5] (setting [6]), the nocturnal activity entry was “clear abnormal increase in nocturnal activity; also recorded: significant increase in nocturnal activity” and the sleep efficiency entry is listed as “significantly dropped; also recorded: decrease in sleep efficiency; also recorded: sleep efficiency significantly decreased”.

`N[C@@H](Cc1ccc(O)c(O)c1)C(=O)O` [levodopa, L-3,4-dihydroxy-phenylalanine]: the “duration of dyskinesia after dosing” value in data set [1] (6th week of high dose levodopa 20 mg/kg) was “up to 4 hours”. Besides, in data set [1] (setting [7]), the “duration of abnormal involuntary movements” value is reported as “up to 180 minutes” and the “time after dosing at which abnormal involuntary movements became visible” value is “approximately 30 minutes”. Besides, in data set [1] (setting [8]), the “duration of the peak-dose period of dyskinesias” value came out at 2 h and the “time to reach the peak-dose period of dyskinesias after dosing” value turned out to be 30 min. Besides, the “highest dyskinesia disability score” value in data set [1] (levodopa 20 mg/kg combined with vehicle, scale 0 to 3) came to 3. Besides, the “Parkinsonian symptoms (PDRS)” value in the data set on Parkinsonian marmosets [2] (high doses of levodopa) was “worsened the Parkinsonian symptoms”. Also, in the data set with Parkinsonian marmosets [2] (physiological doses of levodopa), the “PDRS” value is “improved the PDRS”. Further, in the data set on Parkinsonian marmosets [3] (setting [9]), the “time to cross the dyskinesia threshold after injection (motor activity)” value was no more than 30 min and the “time to return to the ON-period without dyskinesia” value was “approximately 145 minutes”.
